In ChEMBL document CHEMBL5154765, “Design, synthesis, and biological evaluation of novel spiro[pyrrolidine-2,3'-quinolin]-2'-one derivatives as potential chitin synthase inhibitors and antifungal agents” (Eur J Med Chem, 2022):
In brackets after ≈: the same amount, converted by molar mass. Blank lines part the entries; values can stand above or below the molecule they belong to.

Assays:
Candida tropicalis = assay: Inhibition of Candida tropicalis ATCC750 chitin synthase at 300 ug/ml using UDP-GlcNAc as substrate incubated for 1 hr by microplate reader analysis relative to control; settings: dose 300.0 µg/ml
Cryptococcus neoformans [1] = assay: Antifungal activity against Cryptococcus neoformans ATCC 32719 assessed as fluconazole MIC incubated for 72 hrs by checker board assay; assay type: functional
Candida albicans [2] = assay: Antifungal activity against Candida albicans ATCC 76615 incubated for 72 hrs in presence of polyoxin B by checker board assay; assay type: functional
Aspergillus flavus [3] = assay: Antifungal activity against Aspergillus flavus ATCC 16870 assessed as fluconazole MIC incubated for 72 hrs by checker board assay; assay type: functional
Cryptococcus neoformans [4] = assay: Antifungal activity against Cryptococcus neoformans ATCC 32719 assessed as polyoxin B MIC incubated for 72 hrs by checker board assay; assay type: functional
Aspergillus fumigatus [5] = assay: Antifungal activity against Aspergillus fumigatus GIMCC 3.19 assessed as fluconazole MIC incubated for 72 hrs by checker board assay; assay type: functional
Aspergillus fumigatus [6] = assay: Antifungal activity against Aspergillus fumigatus GIMCC 3.19 assessed as reduction in fungal growth incubated for 24 hrs by two fold broth dilution method; assay type: functional
Cryptococcus neoformans [7] = assay: Antifungal activity against Cryptococcus neoformans ATCC 32719 assessed as reduction in fungal growth in presence of sorbitol incubated for 24 hrs by two fold broth dilution method; assay type: functional
Candida albicans [8] = assay: Synergistic antifungal activity against Candida albicans ATCC 76615 assessed as fractional inhibitory concentration index incubated for 72 hrs in presence of fluconazole by checker board assay; assay type: functional
Aspergillus flavus [9] = assay: Synergistic antifungal activity against Aspergillus flavus ATCC 16870 assessed as fractional inhibitory concentration index incubated for 72 hrs in presence of fluconazole by checker board assay; assay type: functional
Aspergillus flavus [10] = assay: Antifungal activity against Aspergillus flavus ATCC 16870 assessed as reduction in fungal growth in presence of sorbitol incubated for 24 hrs by two fold broth dilution method; assay type: functional
Candida albicans [11] = assay: Antifungal activity against fluconazole resistant Candida albicans ATCC 76615 assessed as reduction in fungal growth incubated for 24 hrs by two fold broth dilution method; assay type: functional
Aspergillus flavus [12] = assay: Antifungal activity against fluconazole resistant Aspergillus flavus ATCC 16870 assessed as reduction in fungal growth incubated for 24 hrs by two fold broth dilution method; assay type: functional
Aspergillus fumigatus [13] = assay: Antifungal activity against fluconazole resistant Aspergillus fumigatus GIMCC 3.19 assessed as reduction in fungal growth incubated for 24 hrs by two fold broth dilution method; assay type: functional
[14] = Inhibition of Candida tropicalis ATCC750 chitin synthase using UDP-GlcNAc as substrate incubated for 1 hr by microplate reader analysis
Candida albicans [15] = assay: Synergistic antifungal activity against Candida albicans ATCC 76615 assessed as fractional inhibitory concentration index incubated for 72 hrs in presence of polyoxin B by checker board assay; assay type: functional
Aspergillus flavus [16] = assay: Antifungal activity against Aspergillus flavus ATCC 16870 incubated for 72 hrs in presence of polyoxin B by checker board assay; assay type: functional
Cryptococcus neoformans [17] = assay: Synergistic antifungal activity against Cryptococcus neoformans ATCC 32719 assessed as fractional inhibitory concentration index incubated for 72 hrs in presence of fluconazole by checker board assay; assay type: functional
Candida albicans [18] = assay: Antifungal activity against Candida albicans ATCC 76615 assessed as reduction in fungal growth in presence of sorbitol incubated for 24 hrs by two fold broth dilution method; assay type: functional
Aspergillus fumigatus [19] = assay: Antifungal activity against Aspergillus fumigatus GIMCC 3.19 assessed as polyoxin B MIC incubated for 72 hrs by checker board assay; assay type: functional
Cryptococcus neoformans [20] = assay: Antifungal activity against fluconazole resistant Cryptococcus neoformans ATCC 32719 assessed as reduction in fungal growth incubated for 24 hrs by two fold broth dilution method; assay type: functional
Aspergillus fumigatus [21] = assay: Antifungal activity against Aspergillus fumigatus GIMCC 3.19 incubated for 72 hrs in presence of fluconazole by checker board assay; assay type: functional
Candida albicans [22] = assay: Antifungal activity against Candida albicans ATCC 76615 assessed as polyoxin B MIC incubated for 72 hrs by checker board assay; assay type: functional
Aspergillus fumigatus [23] = assay: Antifungal activity against Aspergillus fumigatus GIMCC 3.19 assessed as reduction in fungal growth in presence of sorbitol incubated for 24 hrs by two fold broth dilution method; assay type: functional
Aspergillus flavus [24] = assay: Synergistic antifungal activity against Aspergillus flavus ATCC 16870 assessed as fractional inhibitory concentration index incubated for 72 hrs in presence of polyoxin B by checker board assay; assay type: functional
Cryptococcus neoformans [25] = assay: Antifungal activity against Cryptococcus neoformans ATCC 32719 assessed as reduction in fungal growth incubated for 24 hrs by two fold broth dilution method; assay type: functional
Candida albicans [26] = assay: Antifungal activity against micafungin resistant Candida albicans ATCC 76615 assessed as reduction in fungal growth incubated for 24 hrs by two fold broth dilution method; assay type: functional
Cryptococcus neoformans [27] = assay: Antifungal activity against Cryptococcus neoformans ATCC 32719 incubated for 72 hrs in presence of fluconazole by checker board assay; assay type: functional
Aspergillus flavus [28] = assay: Antifungal activity against Aspergillus flavus ATCC 16870 assessed as reduction in fungal growth incubated for 24 hrs by two fold broth dilution method; assay type: functional
Aspergillus fumigatus [29] = assay: Synergistic antifungal activity against Aspergillus fumigatus GIMCC 3.19 assessed as fractional inhibitory concentration index incubated for 72 hrs in presence of fluconazole by checker board assay; assay type: functional
Cryptococcus neoformans [30] = assay: Antifungal activity against Cryptococcus neoformans ATCC 32719 incubated for 72 hrs in presence of polyoxin B by checker board assay; assay type: functional
Candida albicans [31] = assay: Antifungal activity against Candida albicans ATCC 76615 incubated for 72 hrs in presence of fluconazole by checker board assay; assay type: functional
Candida albicans [32] = assay: Antifungal activity against Candida albicans ATCC 76615 assessed as reduction in fungal growth incubated for 24 hrs by two fold broth dilution method; assay type: functional
Cryptococcus neoformans [33] = assay: Synergistic antifungal activity against Cryptococcus neoformans ATCC 32719 assessed as fractional inhibitory concentration index incubated for 72 hrs in presence of polyoxin B by checker board assay; assay type: functional
Aspergillus flavus [34] = assay: Antifungal activity against Aspergillus flavus ATCC 16870 incubated for 72 hrs in presence of fluconazole by checker board assay; assay type: functional
Candida albicans [35] = assay: Antifungal activity against Candida albicans ATCC 76615 assessed as fluconazole MIC incubated for 72 hrs by checker board assay; assay type: functional
Aspergillus fumigatus [36] = assay: Synergistic antifungal activity against Aspergillus fumigatus GIMCC 3.19 assessed as fractional inhibitory concentration index incubated for 72 hrs in presence of polyoxin B by checker board assay; assay type: functional
Aspergillus fumigatus [37] = assay: Antifungal activity against Aspergillus fumigatus GIMCC 3.19 incubated for 72 hrs in presence of polyoxin B by checker board assay; assay type: functional
Aspergillus flavus [38] = assay: Antifungal activity against Aspergillus flavus ATCC 16870 assessed as polyoxin B MIC incubated for 72 hrs by checker board assay; assay type: functional

SMILES: O=C(/C=C/C(=O)N1CCCC12Cc1ccccc1NC2=O)Nc1ccccc1[N+](=O)[O-] (stereo not given)
inhibition (Candida tropicalis): 80.9%
MIC (Cryptococcus neoformans [1]): 4 µg/mL
MIC (Candida albicans [2]): 2 µg/mL
MIC (Aspergillus flavus [3]): 2 µg/mL
MIC (Cryptococcus neoformans [4]): 8 µg/mL
MIC (Aspergillus fumigatus [5]): 2 µg/mL
MIC (Aspergillus fumigatus [6]): 4 µg/mL (≈ 9.51 µM)
MIC (Cryptococcus neoformans [7]): 64 µg/mL
fractional inhibitory concentration index (FICI) (Candida albicans [8]): 1
fractional inhibitory concentration index (FICI) (Aspergillus flavus [9]): 0.75
MIC (Aspergillus flavus [10]): 64 µg/mL
MIC (Candida albicans [11]): 64 µg/mL (≈ 152 µM)
MIC (Aspergillus flavus [12]): 64 µg/mL (≈ 152 µM)
MIC (Aspergillus fumigatus [13]): 64 µg/mL (≈ 152 µM)
IC50 [14]: 110 µM
fractional inhibitory concentration index (FICI) (Candida albicans [15]): 1
MIC (Aspergillus flavus [16]): 4 µg/mL
fractional inhibitory concentration index (FICI) (Cryptococcus neoformans [17]): 1
MIC (Candida albicans [18]): 32 µg/mL
MIC (Aspergillus fumigatus [19]): 8 µg/mL
MIC (Cryptococcus neoformans [20]): 64 µg/mL (≈ 152 µM)
MIC (Aspergillus fumigatus [21]): 1 µg/mL
MIC (Candida albicans [22]): 4 µg/mL
MIC (Aspergillus fumigatus [23]): 32 µg/mL
fractional inhibitory concentration index (FICI) (Aspergillus flavus [24]): 1.5
MIC (Cryptococcus neoformans [25]): 16 µg/mL (≈ 38.1 µM)
MIC (Candida albicans [26]): 64 µg/mL (≈ 152 µM)
MIC (Cryptococcus neoformans [27]): 8 µg/mL
MIC (Aspergillus flavus [28]): 4 µg/mL (≈ 9.51 µM)
fractional inhibitory concentration index (FICI) (Aspergillus fumigatus [29]): 0.75
MIC (Cryptococcus neoformans [30]): 4 µg/mL
MIC (Candida albicans [31]): 2 µg/mL
MIC (Candida albicans [32]): 4 µg/mL (≈ 9.51 µM)
fractional inhibitory concentration index (FICI) (Cryptococcus neoformans [33]): 0.75
MIC (Aspergillus flavus [34]): 2 µg/mL
MIC (Candida albicans [35]): 2 µg/mL
fractional inhibitory concentration index (FICI) (Aspergillus fumigatus [36]): 1.5
MIC (Aspergillus fumigatus [37]): 2 µg/mL
MIC (Aspergillus flavus [38]): 4 µg/mL

SMILES: O=C(/C=C/C(=O)N1CCCC12Cc1ccccc1NC2=O)Nc1ccc(Br)cc1 (stereo not given)
inhibition (Candida tropicalis): 56.4%
MIC (Aspergillus fumigatus [6]): 16 µg/mL (≈ 35.2 µM)
IC50 [14]: 520 µM
MIC (Cryptococcus neoformans [25]): 16 µg/mL (≈ 35.2 µM)
MIC (Aspergillus flavus [28]): 16 µg/mL (≈ 35.2 µM)
MIC (Candida albicans [32]): 8 µg/mL (≈ 17.6 µM)

SMILES: O=C(/C=C/C(=O)N1CCCC12Cc1ccccc1NC2=O)Nc1ccccc1Cl (stereo not given)
inhibition (Candida tropicalis): 76.1%
MIC (Aspergillus fumigatus [6]): 4 µg/mL (≈ 9.76 µM)
MIC (Cryptococcus neoformans [7]): 64 µg/mL
MIC (Aspergillus flavus [10]): 128 µg/mL
MIC (Candida albicans [11]): 32 µg/mL (≈ 78.1 µM)
MIC (Aspergillus flavus [12]): 16 µg/mL (≈ 39 µM)
MIC (Aspergillus fumigatus [13]): 32 µg/mL (≈ 78.1 µM)
IC50 [14]: 120 µM
MIC (Candida albicans [18]): 32 µg/mL
MIC (Cryptococcus neoformans [20]): 32 µg/mL (≈ 78.1 µM)
MIC (Aspergillus fumigatus [23]): 64 µg/mL
MIC (Cryptococcus neoformans [25]): 8 µg/mL (≈ 19.5 µM)
MIC (Candida albicans [26]): 32 µg/mL (≈ 78.1 µM)
MIC (Aspergillus flavus [28]): 8 µg/mL (≈ 19.5 µM)
MIC (Candida albicans [32]): 4 µg/mL (≈ 9.76 µM)

SMILES: NC(=O)OC[C@H](O)[C@@H](O)[C@H](N)C(=O)N[C@H](C(=O)O)[C@H]1O[C@@H](n2cc(CO)c(=O)[nH]c2=O)[C@H](O)[C@@H]1O [POLYOXIN B]
inhibition (Candida tropicalis): 86.1%
MIC (Aspergillus fumigatus [6]): 8 µg/mL (≈ 15.8 µM)
MIC (Cryptococcus neoformans [7]): 128 µg/mL
MIC (Aspergillus flavus [10]): 64 µg/mL
IC50 [14]: 90 µM
MIC (Candida albicans [18]): 64 µg/mL
MIC (Aspergillus fumigatus [23]): 64 µg/mL
MIC (Cryptococcus neoformans [25]): 16 µg/mL (≈ 31.5 µM)
MIC (Aspergillus flavus [28]): 8 µg/mL (≈ 15.8 µM)
MIC (Candida albicans [32]): 8 µg/mL (≈ 15.8 µM)

SMILES: COc1cc(NC(=O)/C=C/C(=O)N2CCCC23Cc2ccccc2NC3=O)c(OC)cc1Cl (stereo not given)
inhibition (Candida tropicalis): 67.9%
MIC (Aspergillus fumigatus [6]): 32 µg/mL (≈ 68.1 µM)
IC50 [14]: 200 µM
MIC (Cryptococcus neoformans [25]): 32 µg/mL (≈ 68.1 µM)
MIC (Aspergillus flavus [28]): 16 µg/mL (≈ 34 µM)
MIC (Candida albicans [32]): 8 µg/mL (≈ 17 µM)

More lines, now with the values ahead:

inhibition (Candida tropicalis): 48.3%
MIC (Aspergillus fumigatus [6]): 32 µg/mL (≈ 78.9 µM)
IC50 [14]: 770 µM
MIC (Cryptococcus neoformans [25]): 32 µg/mL (≈ 78.9 µM)
MIC (Aspergillus flavus [28]): 16 µg/mL (≈ 39.5 µM)
MIC (Candida albicans [32]): 8 µg/mL (≈ 19.7 µM)
SMILES: COc1cccc(NC(=O)/C=C/C(=O)N2CCCC23Cc2ccccc2NC3=O)c1 (stereo not given)

inhibition (Candida tropicalis): 50.9%
MIC (Aspergillus fumigatus [6]): 8 µg/mL (≈ 19.7 µM)
IC50 [14]: 590 µM
MIC (Cryptococcus neoformans [25]): 32 µg/mL (≈ 78.9 µM)
MIC (Aspergillus flavus [28]): 32 µg/mL (≈ 78.9 µM)
MIC (Candida albicans [32]): 16 µg/mL (≈ 39.5 µM)
SMILES: COc1ccc(NC(=O)/C=C/C(=O)N2CCCC23Cc2ccccc2NC3=O)cc1 (stereo not given)

inhibition (Candida tropicalis): 65.2%
MIC (Aspergillus fumigatus [6]): 8 µg/mL (≈ 19.7 µM)
IC50 [14]: 300 µM
MIC (Cryptococcus neoformans [25]): 64 µg/mL (≈ 158 µM)
MIC (Aspergillus flavus [28]): 16 µg/mL (≈ 39.5 µM)
MIC (Candida albicans [32]): 8 µg/mL (≈ 19.7 µM)
SMILES: COc1ccccc1NC(=O)/C=C/C(=O)N1CCCC12Cc1ccccc1NC2=O (stereo not given)

inhibition (Candida tropicalis): 46.4%
MIC (Aspergillus fumigatus [6]): 64 µg/mL (≈ 164 µM)
IC50 [14]: 1070 µM
MIC (Cryptococcus neoformans [25]): 64 µg/mL (≈ 164 µM)
MIC (Aspergillus flavus [28]): 16 µg/mL (≈ 41.1 µM)
MIC (Candida albicans [32]): 32 µg/mL (≈ 82.2 µM)
SMILES: Cc1ccc(NC(=O)/C=C/C(=O)N2CCCC23Cc2ccccc2NC3=O)cc1 (stereo not given)
